Consider four substances from patent US11319348B2, “Synthetic beta-amyloid peptides capable of forming stable antigenic oligomers” (The Regents of the University of California, priority 2016, dated 2022).

A short description of data set [1]: Tricine SDS-PAGE with silver staining. Format: physicochemical. The text has this: Trimer 3 migrates as a single band at a molecular weight consistent with a hexamer. Trimer 4, in contrast, migrates as two distinct bands: a band consistent with the molecular weight of a dodecamer, and a band consistent with the molecular weight of a trimer.
Peptide 8 assembles to form a hexamer in SDS-PAGE. […] To further confirm the oligomerization state of […], it was compared to covalent trimers 3 and 4 (FIGS. 19A and 19B), which was previously determined to migrate respectively as 10.6 kDa hexamers and 21.2 kDa dodecamers in equilibrium with the 5.3 kDa trimers. Peptide 8 migrates at the same molecular weight as the hexamer band of trimer 3, providing further evidence that peptide 8 assembles to form a hexamer in SDS-PAGE.
The oligomerization of peptides 1 and 2 and trimers 3 and 4 was studied by Tricine SDS-PAGE.
Each peptide or trimer was dissolved in deionized water to a concentration of 10 mg/mL. An aliquot of the 10 mg/mL solutions was diluted with deionized water to create 2 mg/mL solutions of peptides 1 and 2, or 0.12 mg/mL solutions of trimers 3 and 4. The […] of peptides 1 and 2, as well as the 0.12 mg/mL solutions of trimers 3 and 4 were further diluted with 2×SDS-PAGE loading buffer (100 mM Tris buffer at pH 6.8, 20% (v/v) glycerol, and 4% SDS) to create 1 mg/mL working solutions of peptides 1 and 2, and 0.06 mg/mL working solutions of trimers 3 and 4. A 5 μL aliquot of each working solution was run on a 16% polyacrylamide gel with a 4% stacking polyacrylamide gel. The gels were run at a constant 60 volts at 4° C.
Staining with silver nitrate was used to visualize peptides 1 and 2 and trimers 3 and 4 in the SDS-PAGE gel. Briefly, the gel was removed from the casting glass and rocked in fixing solution (50% (v/v) methanol and 5% (v/v) acetic acid in deionized water) for 20 min. Next, the fixing solution was discarded and the gel was rocked in 50% (v/v) methanol for 10 min. Next, the 50% methanol was discarded and the gel was rocked in deionized water for 10 min. Next, the water was discarded and the gel was rocked in 0.02% (w/v) sodium thiosulfate in deionized water for 1 min. The sodium thiosulfate was discarded and the gel was rinsed with deionized water (2×). After the last rinse, the gel was submerged in chilled 0.1% (w/v) silver nitrate in deionized water and rocked at 4° C. for 20 min. Next, the silver nitrate solution was discarded and the gel was rinsed with deionized water (2×). To develop the gel, the gel was incubated in developing solution (2% w/v sodium carbonate, 0.04% formaldehyde until the desired intensity of staining was reached (˜1-3 min). When the desired intensity of staining was reached, the development was topped by discarding the developing solution and submerging the gel in 5% acetic acid.

The next data set deals with A11 antibody. Nature of the data set: dot blot with A11 antibody. Type of data set: binding. The text has this: The LDH release and caspase-3 activation studies indicate that trimers 3 and 4 behave similarly to oligomers of full-length Aβ, providing evidence for the biological significance of the triangular assembly. To further evaluate how the biological properties of trimers 3 and 4 compare to those of full-length Aβ, the reactivity of trimers 3 and 4 with the conformation specific antibody A11 was examined. […] The structures of the A oligomers recognized by the A11 antibody are not known. We investigated whether the A11 antibody recognizes trimers 3 and 4 by dot blot analysis.
A 10 mg/mL stock solution of peptides 1 or 2, or trimers 3 or 4 was prepared gravimetrically by dissolving 1 mg of each compound in 100 μL of deionized water that was either filtered through a 0.2 μm syringe filter. An aliquot of each stock solution was diluted with deionized water to make 3 mg/mL solutions. The 3 mg/mL solutions were then serially diluted with deionized water to create 1.5 mg/mL, 0.75 mg/mL, and 0.37 mg/mL solutions. A 5 μL aliquot of each solution from the serial dilution was combined with 5 μL of a 2× solution of phosphate buffered saline (PBS) at pH 7.4 to generate 1.5 mg/mL, 0.75 mg/mL, and 0.37 mg/mL, and 0.18 mg/mL buffered solutions of peptides 1 or 2 or trimers 3 or 4. A 1-μL aliquot of each buffered solution was spotted onto a nitrocellulose membrane and allowed to aft dry (˜5 min). Non-reactive sites were blocked with 10% (w/v) non-fat powdered milk in low-Tween Tris-buffered saline (TBS-IT: 20 mM Tris, 137 mM NaCl; 0.01% Tween 20, pH 7.6) for 1 h at room temperature with rocking. The membrane was then incubated while rocking overnight at 4° C. in primary A11 antibody (200 μg/mL) in 5% non-fat powdered milk in TBS-IT. The next day, the membrane was washed with TBS-IT for 5 min (3×). The membrane was then incubated while rocking with horseradish peroxidase conjugated goat anti-rabbit antibody (100 μg/mL) (Jackson ImmunoResearch catalog #111-035-003) in 5% non-fat powdered milk in TBS-IT for 1 h at room temperature. The membrane was then washed with TBS-IT for 5 min (3×). A 10 mL portion of chemiluminescence substrate (Thermo Scientific SuperSignal West Femto Maximum Sensitivity Substrate, product #34095) was prepared according to manufacturer's protocol and poured onto the membrane. The membrane was allowed to incubate in the chemiluminescence substrate for ˜10 min before imaging. The blot was imaged using a standard digital SLR camera.

Non-standard residues stand in square brackets, D forms with d. No end group written: not given here. NMeF = CN[C@@H](Cc1ccccc1)C(=O)O; Orn = NCCC[C@H](N)C(=O)O

In the case of “peptide 2: macrocyclic β-sheet peptide: Aβ17-23 and Aβ30-36 strands linked by two δOrn turns, Orn35, N-methyl on F20 (Seq. ID 20-21)”, in data set [1], the “oligomer size by SDS-PAGE” value is recorded as 1-2 and the “oligomer state by migration in SDS-PAGE” value is “monomer or dimer”. Moreover, in the data set with A11 antibody, the A11 reactivity entry is on record as “no” and the “reaction with A11 antibody” value was “do not”.

In the case of “peptide 1: macrocyclic β-sheet peptide: Aβ17-23 and Aβ30-36 strands linked by two δOrn turns, Orn35, N-methyl on G33 (Seq. ID 18-19)”, the “oligomer size by SDS-PAGE” value in data set [1] is 1-2. Moreover, in the data set with A11 antibody, the A11 reactivity entry was “no” and the “reaction with A11 antibody” value is reported as “do not”.

Regarding “trimer 3: symmetric tris-disulfide crosslinked trimer generated from peptide 3 (chain 1 [Orn]CVFFCED; chain 2 [Orn]AIIGL[Orn]V; not fully specified (some residues); also: symmetric tris-disulfide crosslinked trimer, macrocyclic by macrolactamization, linkage of strands not given here)”, in data set [1], the “oligomer size by SDS-PAGE” value worked out at 6 and the “oligomer state by migration in SDS-PAGE” value is given as “hexamer”. In the data set on A11 antibody, the A11 reactivity result is given as “yes” and the “reaction with A11 antibody” value is on record as “react with the A11 antibody”.

On to “trimer 4: symmetric tris-disulfide crosslinked trimer generated from peptide 4 (chain 1 [Orn]CVF[NMeF]CED; chain 2 [Orn]AIIGL[Orn]V; also: symmetric tris-disulfide crosslinked trimer, macrocyclic by macrolactamization, linkage of strands not given here)”, for which, in the data set on A11 antibody, the A11 reactivity entry is “yes” and the “reaction with A11 antibody” value is “react with the A11 antibody”.
